Several values for one entry are separate records, joined by “and”; a condition that tells them apart may be missing. Equal entries are not always repeated. Entries after “also recorded” stand apart in the source; their conditions may differ. Non-standard residues stand in square brackets, D forms with d. Residues, ends and D or L forms follow the SMILES beside them. No end group written: not given here. *: point of attachment. Orn(α-tetramethylguanidino) = CN(C)C(=N[C@@H](CCCN)C(=O)*)N(C)C; Orn = NCCC[C@H](N)C(=O)O

A short description of data set [1]: Peptide stability in fresh blood taken by cardiac puncture into a syringe containing the peptide (blood, B). Conditions: blood, 37°C, 1 h, 31.5 μmol/L; for remaining at 1 h: CD-1, mouse, fresh whole blood, read-out: intact peptide remaining relative to time zero. The data set is classed as in vitro ADME, CD-1 mice. The protocol: (§1) All stability tests were performed at least in triplicates.

The nature of data set [2]: Peptide stability in direct serum (DS). The data set is classed as in vitro ADME, CD-1 mice. Conditions: 37°C, 1 h, 31.5 μmol/L; for remaining at 1 h, 31.5 μmol/L: CD-1, mouse, direct serum (supernatant of blood centrifuged immediately), read-out: intact peptide remaining relative to time zero. The procedure: as §1
Data set [3] can be described thus: Peptide stability in activated serum (AS). Conditions: 37°C, 1 h, 31.5 μmol/L; for remaining at 1 h, 31.5 μmol/L: CD-1, mouse, read-out: intact peptide remaining relative to time zero. The data set is classed as in vitro ADME, CD-1 mice. The protocol:
as §1

A short description of data set [4]: Peptide stability in commercial serum (CS). The data set is classed as in vitro ADME, mouse. The note with it: commercial mouse serum, 37°C, 1 h, 31.5 μmol/L; for remaining at 1 h, 31.5 μmol/L: commercial pooled serum, read-out: intact peptide remaining relative to time zero. The protocol:
as §1

Data set [5] in a line: Peptide stability in heparin plasma (HP). The data set is classed as in vitro ADME, CD-1 mouse. The note with it: 37°C, 1 h, 31.5 μmol/L. The procedure:
as §1

Data set [6] in a line: Peptide stability in EDTA plasma (EP). The data set is classed as in vitro ADME, CD-1 mouse. Conditions: 37°C, 1 h, 31.5 μmol/L. The procedure: as §1
For data set [7] the following is noted: cited from earlier work.
Data set [8] in a line: Stability and metabolites across fresh blood, serum and plasma (all six matrices). Conditions: for Overall stability / Sequential stability: fresh blood, serum, and plasma.
Method: Aqueous peptide solutions (3 g/L) were filled in a sterile syringe (1 mL, Dispomed Witt oHG, Gelnhausen, Deutschland) through the front end, the stainless-steel needle was attached, and blood (200 to 300 μL) was collected via cardiac puncture to obtain a peptide concentration of approximately 31,5 μmol/L. The syringe was carefully disconnected from the needle and sealed while keeping the needle in the heart. A second empty syringe was attached to the needle and 0.5 to 0.8 mL blood were collected. In parallel, the sealed syringe was gently shaken for one minute to mix the peptide solution with blood and further incubated on a Stuart Rotator SB3 (Barloworld, Scientific LTD, Stone, Staffordshire, U.K.) placed in an incubator at 37°C. […] The plasma sample designated as “blood” (B) was precipitated with trichloroacetic acid (TCA), as described below. Blood collected in the second syringe was transferred to a polypropylene tube (Eppendorf AG, Hamburg, Germany) and a BD Microtainer® serum separator tube (SST; Becton, Dickinson and Company). Polypropylene tubes were centrifuged immediately (12,000 x g, 2 to 4 min) to obtain “direct serum” (DS) as supernatant, whereas the serum separator tubes were incubated (room temperature, 1 h), centrifuged (12,000 x g, 2 min), and collected as “activated serum” (AS). Pooled mouse serum was purchased from PAA Laboratories GmbH (Pasching, Austria) and pooled CD-1 mouse plasma containing K2EDTA or lithium heparin were obtained from Innovative Research (Novi, MI, USA).
Peptides were mixed with serum or plasma to a final concentration of 31.5 μmol/L and incubated (37°C, 750 rpm; Thermomixer, Eppendorf AG, Hamburg, Germany). Aliquots (20 or 40 μL) taken after 0 and 60 min (0, 10 and 30 min for Api88) were mixed with TCA to obtain a final concentration of 3% (w/v) and incubated on ice (10 min). After centrifugation (12,000 x g, 5 min), the supernatant was neutralized with sodium hydroxide (1 mol/L) and stored at −20°C. Samples were analyzed by RP-HPLC on a Jupiter C18-column (internal diameter: 2 mm, length: 150 mm, particle size: 5 μm, pore size: 30 nm) using a linear aqueous acetonitrile gradient containing TFA (0.1%, v/v) as ion pair reagent. Peptides were detected by recording the absorbance at 214 nm and quantified by their peak areas relative to the initial peak areas (0 min). All stability tests were performed at least in triplicates.
Metabolites were identified on an Agilent 1100 LC system (Agilent Technologies, Santa Clara, CA, USA) coupled on-line via a UV-detector (absorbance recorded at 214 nm) to the electrospray ionization source on an ion trap mass spectrometer (ESI-IT-MS, Esquire HCT, Bruker Daltonics GmbH, Bremen, Germany). Samples were separated on an Aqua C18-column (inner diameter: 2 mm, length: 150 mm, particle size: 3 μm, pore size: 12.5 nm, Phenomenex; column temperature: 60°C) at a flow rate of 0.2 mL/min using a linear gradient of aqueous acetonitrile in the presence of formic acid (FA; 0.1%, v/v) as ion pair reagent. […] The ESI-IT-MS was operated in positive ion mode. Ionization was carried out at 365°C (source temperature) using nitrogen as curtain gas (40 psi) and dry gas (9 L/min). Mass spectra were acquired for an m/z range from 400 to 1300 at a scan rate of 8100 m/z-units per second in standard enhanced mode.
Data set [9] can be described thus: “direct serum” (DS): blood in polypropylene tubes centrifuged immediately. The note with it: CD-1 mice, 37°C, up to 60 min.
Data set [10] can be described thus: “activated serum” (AS): serum separator tubes incubated (room temperature, 1 h), centrifuged. Conditions: CD-1 mice, 37°C, up to 60 min.
A short description of data set [11]: blood collected via cardiac puncture into a syringe containing the peptide solution (“blood”, B). Conditions: CD-1 mice, 37°C, up to 60 min.
Data set [12] can be described thus: Pooled mouse serum (PAA Laboratories), commercial serum (CS). Conditions: 37°C, up to 60 min.
The nature of data set [13]: pooled CD-1 mouse plasma containing K2EDTA (EDTA plasma, EP). The note with it: 37°C, up to 60 min.
Data set [14] is described as follows: pooled CD-1 mouse plasma containing lithium heparin (heparin plasma, HP). The note with it: 37°C, up to 60 min.
A further data set deals with human α-thrombin. In words: human α-thrombin. The note with it: up to 24 hours.

In the case of `CC[C@H](C)[C@H](NC(=O)[C@H](Cc1ccc(O)cc1)NC(=O)[C@@H](NC(=O)[C@@H]1CCCN1C(=O)[C@H](CCCNC(=N)N)NC(=O)[C@H](CC(N)=O)NC(=O)[C@H](CC(N)=O)NC(=O)[C@H](CCCN)N=C(N(C)C)N(C)C)C(C)C)C(=O)N1CCC[C@H]1C(=O)N[C@@H](CCCNC(=N)N)C(=O)N1CCC[C@H]1C(=O)N[C@@H](CCCNC(=N)N)C(=O)N1CCC[C@H]1C(=O)N1CCC[C@H]1C(=O)N[C@@H](Cc1c[nH]cn1)C(=O)N1CCC[C@H]1C(=O)N[C@@H](CCCN)C(=O)N[C@@H](CC(C)C)C(N)=O` [Api134, gu-ONNRPVYIPRPRPPHPOL-NH2] ({Orn(α-tetramethylguanidino)}-NNRPVYIPRPRPPHP[Orn]L-NH2), the “intact peptide remaining relative to time zero” value in [1], in data set [2], in data set [3], in data set [5] and in data set [6] was at least 94% each time. The share remaining at 1 h, 31.5 μmol/L in data set [4] was determined as 78 ± 2%. The “half-life time in mouse serum” value in data set [7] (in vitro, mouse serum) is listed as 4 h. The Overall stability result in data set [8] was “High”. Also, in data set [8], the Sequential stability result is “Blood = Plasma = Serum”.

In the case of `CC[C@H](C)[C@H](NC(=O)[C@H](CCCN)NC(=O)[C@H](CCCNC(=N)N)NC(=O)[C@@H]1CCCN1C(=O)[C@@H]1CCCN1C(=O)[C@H](CCCNC(=N)N)NC(=O)[C@@H]1CCCN1C(=O)[C@H](CCCNC(=N)N)NC(=O)[C@@H]1CCCN1C(=O)[C@H](CC(C)C)NC(=O)[C@H](Cc1ccc(O)cc1)NC(=O)[C@@H]1CCCN1C(=O)[C@@H]1CCCN1C(=O)[C@H](CCCCN)NC(=O)[C@H](CC(=O)O)NC(=O)[C@@H](N)C(C)C)C(=O)N[C@@H](Cc1ccc(O)cc1)C(=O)N[C@@H](CC(N)=O)C(=O)N[C@@H](CCCN)C(N)=O` [Onc72, VDKPPYLPRPRPPROIYNO-NH2] (H-VDKPPYLPRPRPPR[Orn]IYN[Orn]-NH2), in [1], the fraction remaining at 1 h was found to be 103 ± 11%. Besides, the fraction remaining at 1 h, 31.5 μmol/L in data set [2] was found to be 94 ± 8%; in [3], 80 ± 12%; in data set [4] it was 64 ± 2%; in data set [5] (CD-1, mouse, pooled plasma containing lithium heparin, read-out: intact peptide remaining relative to time zero) it was 62 ± 8%; in data set [6] (CD-1, mouse, pooled plasma containing K2EDTA, read-out: intact peptide remaining relative to time zero) it was 47 ± 3%. In [7] (mouse serum), the serum half-life time is 3 h. In addition, the “peptide remaining in serum after one hour, previous study” value in [7] (serum, 1 h) is recorded as 80%. Moreover, the Overall stability entry in data set [8] is “Medium”. Moreover, the Sequential stability entry in data set [8] is reported as “Blood = Serum > Plasma”.

Turning to DTEDKGEFLSEGGGVR, the fragment found entry is listed as “FPA(2–16); TEDKGEFLSEGGGVR; also recorded: FPA(3–16); EDKGEFLSEGGGVR” in data set [9]; “FPA(2–16); TEDKGEFLSEGGGVR; also recorded: FPA(3–16); EDKGEFLSEGGGVR” in data set [10]; “FPA(2–16); TEDKGEFLSEGGGVR, one hour; also recorded: FPA(3–16); EDKGEFLSEGGGVR, one hour” in [11].

As to H-VDKPPYLPRPRPPRRIYNR-NH2, the cleaved bond entry in data set [12] is reported as “Arg14-Arg15, major; also recorded: Asn18-Arg19, major”; in [13], “Arg14-Arg15, major”; in [14], “Arg14-Arg15, major”; in data set [9], “Arg14-Arg15, major”; in data set [10], “Arg14-Arg15, major”; in data set [11], “Arg14-Arg15, major”. The fragment found entry in data set [13] is listed as “Onc18(1–15); VDKPPYLPRPRPPRR-OH”; in [14], “Onc18(2–14); DKPPYLPRPRPPR-OH”; in [9], “Onc18(1–18); VDKPPYLPRPRPPRRIYN-OH”; in data set [10] it was “Onc18(1–18); VDKPPYLPRPRPPRRIYN-OH”; in [11], “Onc18(1–18); VDKPPYLPRPRPPRRIYN-OH”.

In the case of “H-VDKPPYLPRPRPPRRIYNR-NH2 [Onc18, VDKPPYLPRPRPPRRIYNR-NH2]”, the fraction remaining at 1 h in data set [1] came to 42 ± 12%. Besides, the fraction remaining at 1 h, 31.5 μmol/L worked out at 72 ± 4% in data set [2], 53 ± 4% in data set [3] and 12 ± 1% in data set [4]. Also, the “intact peptide remaining relative to time zero” value in data set [4], in data set [5] and in [6] was “less than 13%” in each case. In data set [7] (mouse serum), the serum half-life time is 0.333 h and 0.417 h. For the same compound, the “fraction of peptide remaining in serum after 1 h, reported” value in [7] (serum, 1 h) is recorded as “around a quarter”. For the same compound, the Overall stability result in [8] was “Medium”. The Sequential stability result in [8] is given as “Blood = Serum > Plasma”.

For the compound “VDKPPYLPRPRPPROIYNO-NH2 (H-VDKPPYLPRPRPPR[Orn]IYN[Orn]-NH2)”, the cleaved bond entry is recorded as “Arg14-Orn15, major; also recorded: Asn18-Orn19, major; also recorded: Orn15-Ile16” in [12]; “Arg14-Orn15, major; also recorded: Asn18-Orn19, major; also recorded: Orn15-Ile16” in data set [13]; “Arg14-Orn15, major; also recorded: Asn18-Orn19, major; also recorded: Orn15-Ile16” in data set [14]; “Arg14-Orn15, major; also recorded: Asn18-Orn19, major” in [9]; “Arg14-Orn15, major; also recorded: Asn18-Orn19, major” in data set [10]; “Arg14-Orn15, major; also recorded: Asn18-Orn19, major” in [11].

For VDKPPYLPRPRPPRRIYN-OH [Onc18(1–18)], the “Matrix in which the metabolite was identified” value in data set [8] (LC-MS, peak area at least 1% of initially incubated peptide, B blood, DS direct serum, AS activated serum, CS commercial serum, EP EDTA plasma, HP heparin plasma, All = all six) was “B, DS, AS, CS”.

Regarding “VDKPPYLPRPRPPRrIYNr-NH2 (H-VDKPPYLPRPRPPR[dR]IYN[dR]-NH2)”, the not cleaved result in [12] is reported as “less than 2% being degraded after 1 hour”; in data set [13], “at least 96% remaining after 1 hour”; in data set [14], “at least 96% remaining after 1 hour”; in data set [9], “at least 96% remaining after 1 hour”; in [10] it was “at least 96% remaining after 1 hour”; in [11] it was “at least 96% remaining after 1 hour”.

Turning to “gu-ONNRPVYIPRPRPPHPOL-NH2 ({Orn(α-tetramethylguanidino)}-NNRPVYIPRPRPPHP[Orn]L-NH2)”, the fragment found result was “Api134(1–17); also recorded: Api134 (1–16); also recorded: Api134(7–18); YIPRPRPPHPOL-NH2, major; also recorded: Api134 (8–18); IPRPRPPHPOL-NH2, major” in [12]; “Api134(7–18), minor” in [14]; “Api134(1–17), minor; also recorded: Api134(1–15), minor; also recorded: Api134(7–18), minor” in [10]. The not cleaved in data set [13] and in data set [11] was ≥94% intact peptide (one hour) in each case.

With “gu-ONNRPVYIPRPRPPHPRL-NH2 ({Orn(α-tetramethylguanidino)}-NNRPVYIPRPRPPHPRL-NH2; SMILES CC[C@H](C)[C@H](NC(=O)[C@H](Cc1ccc(O)cc1)NC(=O)[C@@H](NC(=O)[C@@H]1CCCN1C(=O)[C@H](CCCNC(=N)N)NC(=O)[C@H](CC(N)=O)NC(=O)[C@H](CC(N)=O)NC(=O)[C@H](CCCN)N=C(N(C)C)N(C)C)C(C)C)C(=O)N1CCC[C@H]1C(=O)N[C@@H](CCCNC(=N)N)C(=O)N1CCC[C@H]1C(=O)N[C@@H](CCCNC(=N)N)C(=O)N1CCC[C@H]1C(=O)N1CCC[C@H]1C(=O)N[C@@H](Cc1c[nH]cn1)C(=O)N1CCC[C@H]1C(=O)N[C@@H](CCCNC(=N)N)C(=O)N[C@@H](CC(C)C)C(N)=O)”, the cleaved bond result with human α-thrombin is “R17-L18, one hour”; in [12], “Arg17-Leu18, major”; in [13], “Arg17-Leu18, major”; in data set [14], “Arg17-Leu18, major”; in data set [9], “Arg17-Leu18, major”; in data set [10], “Arg17-Leu18, major”. In addition, the cleaved bond entry in [11] is recorded as “Arg17-Leu18, major”. Further, the fragment found entry in data set [12] is recorded as “Api88(1–16); gu-ONNRPVYIPRPRPPHP-OH”; in data set [9], “Api88(1–16)”; in data set [10], “Api88(1–16)”; in data set [11], “Api88(1–16)”.

The values are drawn from PMC5456363 (PLoS ONE, 2017).
